Experiments:
[1] = Cleavage (in-vitro digestion) experiments in FaSSGF medium, which simulates the stomach; type: in vitro ADME; details: cleavage experiments in FaSSGF or FaSSIF medium; stepwise release, retardation effect
Source text: By means of cleavage experiments it is shown that carboxylic acid esters of 3-hydroxybutanoate produced according to the invention or mixtures thereof (cf. previously described experiments according to I., II. and III.), including reaction by-products such as dimers, etc., can be cleaved in the human gastrointestinal tract.
In each case, purified reaction products obtained by the inventive method are used as starting mixtures (i.e. tartaric acid ester of 3-hydroxybutanoate, lactic acid ester of 3-hydroxybutanoate, succinic acid ester of 3-hydroxybutanoate, citric acid ester of 3-hydroxybutanoate, maleic acid ester of 3-hydroxybutanoate, fumaric acid ester of 3-hydroxybutanoate, malic acid ester of 3-hydroxybutanoate and adipic acid ester of 3-hydroxybutanoate).
For the cleavage experiments under near-body conditions two media are investigated: • FaSSGF, which simulates the stomach • FaSSIF, which simulates the intestinal tract
Both media are from the company Biorelevant®, Ltd. in Great Britain. In addition, in some experiments porcine pancreas is added (Panzytrat® 40,000, Fa. Allergan).
Under FaSSIF conditions, a lower conversion using Panzytrat® takes place.
Accordingly, the cleavage experiments of dicarboxylic acid esters of 3-hydroxybutanoates also proceed in a cascade. Thus, a retardation effect is present overall.

[2] = even if several grams are taken; patients; cited from earlier work

| course of the cleavage of 3-hydroxybutanoate [1] | SMILES | duration of ketosis [2] |
| --- | --- | --- |
| proceeds in a cascade | CCOC(=O)CC(C)OC(=O)CC(O)(CC(=O)OC(C)CC(=O)OCC)C(=O)OC(C)CC(=O)OCC (centres unmarked) [1,2,3-tris-(4-ethoxy-4-oxobutan-2yl)-2-hydroxypropane-1,2,3-tricarboxylate] |  |
|  | CC(O)CC(=O)O (centres unmarked) [3-hydroxybutyric acid] | about three to four |

— patent US20230303478A1, “PROCESS FOR PREPARING CARBOXYLIC ACID ESTERS OF HYDROXYBUTANOATES” (IOI Oleo GmbH, priority 2020, published 2023)
